Measured values: paper PMC11977255 (Communications Biology, 2025)

Columns and labels:
McyI [1] = target: T1, McyI (Anabaena sp. 90, UniProt Q7WRR2); experiment: isothermal titration calorimetry; assay type: binding
McyI [2] = target: T1, McyI; experiment: reductase assay, absorbance at […] nm; assay type: biochemical; conditions: 1 mM OAA, 0.2 mM NADPH, 1.6 μM enzyme

T1 sequence (Q7WRR2 1-337 limits assumed): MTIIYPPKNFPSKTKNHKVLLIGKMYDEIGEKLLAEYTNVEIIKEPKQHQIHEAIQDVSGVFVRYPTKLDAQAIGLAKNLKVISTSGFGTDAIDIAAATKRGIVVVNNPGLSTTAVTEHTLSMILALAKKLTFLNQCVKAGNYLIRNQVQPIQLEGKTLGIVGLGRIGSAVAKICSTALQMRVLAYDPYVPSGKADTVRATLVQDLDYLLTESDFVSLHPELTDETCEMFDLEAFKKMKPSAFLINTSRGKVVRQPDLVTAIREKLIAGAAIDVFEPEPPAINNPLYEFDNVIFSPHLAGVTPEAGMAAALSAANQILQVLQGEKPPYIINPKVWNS

| Structure (SMILES) | Kd (McyI [1]) [µM] | reductase assay, absorbance at 340 nm (McyI [2]) |
| --- | --- | --- |
| NC(=O)C1=CN([C@@H]2O[C@H](COP(=O)(O)OP(=O)(O)OC[C@H]3O[C@@H](n4cnc5c(N)ncnc54)[C@H](OP(=O)(O)O)[C@@H]3O)[C@@H](O)[C@H]2O)C=CC1 [NADPH] | 16 |  |
| O=C(O)CC(=O)C(=O)O [OAA] |  | The enzyme, OAA, and the nicotinamide cofactor |
